In patent publication US9205064B2, “Methods for the diagnosis of oncological disorders using epimetabolic shifters, multidimensional intracellular molecules, or environmental influencers” (Berg LLC, priority 2009, dated 2015):

What was measured:
[1] = test system: HDFa cells; experiment: SeaHorse XF analyzer OCR and ECAR; format: cell-based, human; conditions: normoxic and hypoxic, 5.5 mM and 22 mM glucose
Excerpt: Environmental influencers (e.g., MIMs or Epi-shifters) may also be identified by changes in cellular energetics. One example of the measurement of cellular energetics are the real-time measures of the consumption of molecular oxygen and/or the change in pH of the media of a cell culture. For example, the ability of a potential epi-shifter to modulate the metabolic state of a cell may be analyzed using, for example, the XF24 Analyzer (Seahorse, Inc.). This technology allows for real time detection of oxygen and pH changes in a monolayer of cells in order to evaluate the bioenergetics of a cell microenvironment. The XF24 Analyzer measures and compares the rates of oxygen consumption (OCR), which is a measure of aerobic metabolism, and extracellular acidification (ECAR), which is a measure of glycolysis, both key indicators of cellular energetics.
(SeaHorse Biosciences Inc, North Billerica, Mass.).
In this experiment, the OCR and extracellular acidification rate (ECAR) in normal cells lines were obtained in the presence and absence of CoQ10 to determine baseline values. It was observed that in its native nutrient environment, the basal OCR rates in normal cells lines are different, and are usually a function of the physiological roles of the cells in the body.
FIGS. 29 and 30 describe the OCR in HDFa and HASMC cells grown in physiologically normal glucose (about 4.6 mM) and high glucose (hyperglycemic) conditions.
Table 53, below, describes the ECAR values (mpH/min) in HDFa cells in the presence or absence of CoQ10 under normoxic and hypoxic conditions at 5.5 mM and 22 mM glucose.

[2] = test system: Lactate Dehydrogenase (LDH); experiment: Western blot of lactate dehydrogenase levels; format: cell-based, human; conditions: cancer cells
Experimental: The samples were processed and run on a 4-12% Bis-Tris Novex NuPAGE gel as described above. The gels were run, transferred and stained essentially as described above.
After transfer each blot was dried for 15-20 minutes, activated with methanol for 5 seconds, washed with water for 5 minutes, and TBST for 15 minutes. The blots were blocked for 1 hour with 5% blocking reagent in TBS-T at room temperature and then washed 3 times with TBS-T (1×-15′; 2×5′ each) and probed with the primary antibody for Lactate Dehydrogenase (abcam ab2101; polyclonal) in 5% BSA (at 1:1000 dilutions) by incubation overnight at 4 deg C. with shaking. After the overnight incubation with primary antibody for Lactate Dehydrogenase, the blots were washed 3 times with TBS-T (1×-15′; 2×5′ each) and probed with the secondary antibody (rabbit antigoat; 1:10,000 dilution) for 1 h at room temperature. After 1 h of incubation with secondary antibodies, the blots were washed 3 times with TBS-T (1×-15′; 2×5′ each) and then incubated with ECF reagent for 5 mins and then each blot scanned with 5100 Fuji Laser scanner at 25 uM resolution, 16 bit, green laser, at 400V and at 500 V. […]
The levels of LDH and PDH were determined by probing the blots successively with primary antibodies for LDH and PDH, essentially as described above. […]

[3] = test system: SK-MEL28; experiment: Nexin assay for apoptosis (Annexin-V-PE/7-AAD, flow cytometry); format: cell-based; conditions: 50 μM and 100 μM Q10, 24 hours
Excerpt: (§1) The 7AAD dye will enter into cells with permeabilized cell membranes; primarily those cells that are in late apoptosis. Annexin-V-PE is a dye that binds to Phosphotidyl serine, which is exposed on the outer surface of the plasma membrane in early apoptotic cells. The Nexin reagent thus can be used to differentiate between different populations of apoptotic cells in a flow cytometer.

[4] = test system: PC-3; experiment: as above; format: cell-based; conditions: 50 μM and 100 μM Q10, 24 hours; less than PaCa2
Excerpt: as §1

[5] = test system: MCF-7; experiment: as above; format: cell-based; conditions: 50 μM and 100 μM Q10, 24 hours
Excerpt: as §1

Structure (SMILES): COC1=C(OC)C(=O)C(C/C=C(\C)CC/C=C(\C)CC/C=C(\C)CC/C=C(\C)CC/C=C(\C)CC/C=C(\C)CC/C=C(\C)CC/C=C(\C)CC/C=C(\C)CCC=C(C)C)=C(C)C1=O [Q10, Coenzyme Q10]
- influence on ECAR values [1]: minimal influence
- Lactate Dehydrogenase (LDH) expression [2]: reduced
- apoptotic population [3]: increase only in early apoptotic population
- early and late apoptotic population [4]: increase
- apoptotic population [5]: increase only in early apoptotic population
